Assay results as given in patent publication US10670605B2, “Cysteine reactive probes and uses thereof” (The Scripps Research Institute, priority 2015, dated 2020).
pIC50: −log10 of the molar value.

What was measured:
WT-IDH1 (C269) = target: T1, WT-IDH1 (C269) (Homo sapiens, UniProt O75874); assay: Blockade of IA-rhodamine labeling of WT-IDH1; assay type: binding; settings: 2 μM protein in MDA-MB-231 lysate
T1 construct: Full length cDNAs encoding for IDH1 (Open Biosystems, Clone ID: 3880331) and IMPDH2; His6 (C); made in house; host or cells: E. coli BL21(DE3)
T1 sequence (O75874 whole entry): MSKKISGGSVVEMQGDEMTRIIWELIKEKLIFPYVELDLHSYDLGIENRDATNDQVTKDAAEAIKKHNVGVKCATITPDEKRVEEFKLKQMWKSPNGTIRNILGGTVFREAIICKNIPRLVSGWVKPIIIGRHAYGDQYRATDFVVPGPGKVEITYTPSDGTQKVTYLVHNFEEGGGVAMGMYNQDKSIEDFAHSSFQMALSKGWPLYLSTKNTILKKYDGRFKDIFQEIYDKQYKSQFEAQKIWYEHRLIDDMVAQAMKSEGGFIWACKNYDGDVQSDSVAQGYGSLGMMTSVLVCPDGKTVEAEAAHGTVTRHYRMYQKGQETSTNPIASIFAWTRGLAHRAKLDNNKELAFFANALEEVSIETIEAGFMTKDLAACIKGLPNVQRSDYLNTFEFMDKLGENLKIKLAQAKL

[1] = target: T2, cysteines in MDA-MB-231 and Ramos cells (Homo sapiens, UniProt Q7Z5K2); assay: Competitive isoTOP-ABPP in situ (fragment-treated cells); assay type: cell-based
T2 sequence (Q7Z5K2 1-1190): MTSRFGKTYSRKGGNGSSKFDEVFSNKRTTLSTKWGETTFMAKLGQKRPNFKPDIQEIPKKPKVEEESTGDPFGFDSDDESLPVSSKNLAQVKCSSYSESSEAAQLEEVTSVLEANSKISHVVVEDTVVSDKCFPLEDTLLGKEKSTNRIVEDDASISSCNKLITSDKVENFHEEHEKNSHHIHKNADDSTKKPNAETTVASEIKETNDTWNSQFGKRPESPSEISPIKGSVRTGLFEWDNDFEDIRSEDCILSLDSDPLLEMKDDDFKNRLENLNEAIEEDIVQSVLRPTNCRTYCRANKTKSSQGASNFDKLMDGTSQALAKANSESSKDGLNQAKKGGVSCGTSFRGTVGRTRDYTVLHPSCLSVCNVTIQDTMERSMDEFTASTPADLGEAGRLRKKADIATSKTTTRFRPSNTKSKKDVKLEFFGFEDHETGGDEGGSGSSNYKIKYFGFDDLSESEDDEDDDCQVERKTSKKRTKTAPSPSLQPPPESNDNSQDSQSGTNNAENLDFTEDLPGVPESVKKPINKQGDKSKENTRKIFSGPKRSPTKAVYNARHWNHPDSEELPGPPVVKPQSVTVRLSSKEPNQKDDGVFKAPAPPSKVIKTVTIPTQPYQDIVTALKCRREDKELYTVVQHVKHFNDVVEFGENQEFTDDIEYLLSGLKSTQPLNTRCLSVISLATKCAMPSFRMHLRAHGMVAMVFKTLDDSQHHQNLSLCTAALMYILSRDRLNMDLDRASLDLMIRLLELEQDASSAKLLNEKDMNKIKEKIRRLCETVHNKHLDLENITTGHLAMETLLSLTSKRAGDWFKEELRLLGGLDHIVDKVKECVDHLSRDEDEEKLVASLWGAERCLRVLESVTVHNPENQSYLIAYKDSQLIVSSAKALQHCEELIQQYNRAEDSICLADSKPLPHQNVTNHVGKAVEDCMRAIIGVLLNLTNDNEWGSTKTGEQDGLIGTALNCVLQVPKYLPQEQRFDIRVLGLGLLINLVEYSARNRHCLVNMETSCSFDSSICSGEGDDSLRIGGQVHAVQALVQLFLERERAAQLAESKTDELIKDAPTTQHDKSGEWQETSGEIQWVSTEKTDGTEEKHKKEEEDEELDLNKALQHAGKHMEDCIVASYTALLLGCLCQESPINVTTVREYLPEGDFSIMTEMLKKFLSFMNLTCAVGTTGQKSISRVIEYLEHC

[2] = target: cysteines in MDA-MB-231 and Ramos cells (Homo sapiens, UniProt Q9NZB2); assay: as above; assay type: cell-based; settings: 200 μM, insitu, 231
cysteines in MDA-MB-231 and Ramos cells (Homo sapiens, UniProt Q9NZB2), sequence (Q9NZB2 whole entry): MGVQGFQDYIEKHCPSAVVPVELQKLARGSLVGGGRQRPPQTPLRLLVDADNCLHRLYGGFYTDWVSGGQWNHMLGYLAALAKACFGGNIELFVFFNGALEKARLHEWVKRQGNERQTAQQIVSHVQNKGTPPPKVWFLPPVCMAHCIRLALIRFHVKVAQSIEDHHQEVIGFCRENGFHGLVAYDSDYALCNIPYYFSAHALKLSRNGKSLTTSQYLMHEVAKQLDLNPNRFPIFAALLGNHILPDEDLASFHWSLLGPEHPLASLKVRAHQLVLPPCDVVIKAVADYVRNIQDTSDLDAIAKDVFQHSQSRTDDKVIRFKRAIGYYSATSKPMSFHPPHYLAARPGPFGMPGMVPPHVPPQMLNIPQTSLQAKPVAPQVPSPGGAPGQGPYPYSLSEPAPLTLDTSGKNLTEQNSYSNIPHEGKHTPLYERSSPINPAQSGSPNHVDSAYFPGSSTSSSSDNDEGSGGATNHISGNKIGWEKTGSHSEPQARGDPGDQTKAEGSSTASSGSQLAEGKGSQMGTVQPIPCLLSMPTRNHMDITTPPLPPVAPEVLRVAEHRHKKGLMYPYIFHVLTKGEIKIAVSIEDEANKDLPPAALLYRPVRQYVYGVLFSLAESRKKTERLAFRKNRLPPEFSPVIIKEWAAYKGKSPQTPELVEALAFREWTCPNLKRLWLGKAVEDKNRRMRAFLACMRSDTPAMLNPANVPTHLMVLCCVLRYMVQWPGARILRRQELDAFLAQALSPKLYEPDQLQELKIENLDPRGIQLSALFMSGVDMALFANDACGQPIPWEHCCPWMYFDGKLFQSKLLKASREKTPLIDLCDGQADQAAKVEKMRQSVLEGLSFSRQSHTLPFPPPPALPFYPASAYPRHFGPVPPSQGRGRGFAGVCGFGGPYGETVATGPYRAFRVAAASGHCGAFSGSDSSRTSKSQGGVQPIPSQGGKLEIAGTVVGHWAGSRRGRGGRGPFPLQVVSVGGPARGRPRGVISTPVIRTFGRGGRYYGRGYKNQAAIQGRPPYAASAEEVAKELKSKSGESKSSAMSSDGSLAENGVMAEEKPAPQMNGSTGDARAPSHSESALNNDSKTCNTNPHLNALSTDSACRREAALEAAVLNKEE

ACO2 C385 (Q99798) = ACO2 C385 (Q99798) (Homo sapiens, UniProt Q99798); assay: Competitive isoTOP-ABPP in situ; assay type: cell-based; settings: MDA-MB-231 cells
ACO2 C385 (Q99798), sequence (Q99798 28-780): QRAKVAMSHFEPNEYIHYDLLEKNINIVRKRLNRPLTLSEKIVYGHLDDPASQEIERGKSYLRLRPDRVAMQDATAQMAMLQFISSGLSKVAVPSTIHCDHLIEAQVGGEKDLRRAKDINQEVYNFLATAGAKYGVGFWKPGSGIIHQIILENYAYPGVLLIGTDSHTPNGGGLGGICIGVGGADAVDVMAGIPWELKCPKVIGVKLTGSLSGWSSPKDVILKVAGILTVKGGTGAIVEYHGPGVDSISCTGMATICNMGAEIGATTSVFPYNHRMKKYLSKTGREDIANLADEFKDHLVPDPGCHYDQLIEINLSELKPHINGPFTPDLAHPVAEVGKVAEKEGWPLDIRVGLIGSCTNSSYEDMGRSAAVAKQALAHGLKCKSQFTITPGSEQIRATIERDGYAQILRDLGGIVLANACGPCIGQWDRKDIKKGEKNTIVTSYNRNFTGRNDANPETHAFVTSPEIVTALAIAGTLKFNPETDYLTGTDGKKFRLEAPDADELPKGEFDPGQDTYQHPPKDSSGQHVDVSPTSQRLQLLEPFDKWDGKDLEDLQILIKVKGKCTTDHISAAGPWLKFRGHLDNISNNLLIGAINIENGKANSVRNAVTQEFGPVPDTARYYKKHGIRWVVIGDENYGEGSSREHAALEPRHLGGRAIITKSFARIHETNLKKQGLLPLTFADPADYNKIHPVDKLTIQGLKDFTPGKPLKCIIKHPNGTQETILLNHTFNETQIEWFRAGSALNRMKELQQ

USP16 C205 (Q9Y5T5) = USP16 C205 (Q9Y5T5) (Homo sapiens, UniProt Q9Y5T5); assay: Competitive isoTOP-ABPP in situ; assay type: cell-based; settings: MDA-MB-231 cells
USP16 C205 (Q9Y5T5), sequence (Q9Y5T5 whole entry): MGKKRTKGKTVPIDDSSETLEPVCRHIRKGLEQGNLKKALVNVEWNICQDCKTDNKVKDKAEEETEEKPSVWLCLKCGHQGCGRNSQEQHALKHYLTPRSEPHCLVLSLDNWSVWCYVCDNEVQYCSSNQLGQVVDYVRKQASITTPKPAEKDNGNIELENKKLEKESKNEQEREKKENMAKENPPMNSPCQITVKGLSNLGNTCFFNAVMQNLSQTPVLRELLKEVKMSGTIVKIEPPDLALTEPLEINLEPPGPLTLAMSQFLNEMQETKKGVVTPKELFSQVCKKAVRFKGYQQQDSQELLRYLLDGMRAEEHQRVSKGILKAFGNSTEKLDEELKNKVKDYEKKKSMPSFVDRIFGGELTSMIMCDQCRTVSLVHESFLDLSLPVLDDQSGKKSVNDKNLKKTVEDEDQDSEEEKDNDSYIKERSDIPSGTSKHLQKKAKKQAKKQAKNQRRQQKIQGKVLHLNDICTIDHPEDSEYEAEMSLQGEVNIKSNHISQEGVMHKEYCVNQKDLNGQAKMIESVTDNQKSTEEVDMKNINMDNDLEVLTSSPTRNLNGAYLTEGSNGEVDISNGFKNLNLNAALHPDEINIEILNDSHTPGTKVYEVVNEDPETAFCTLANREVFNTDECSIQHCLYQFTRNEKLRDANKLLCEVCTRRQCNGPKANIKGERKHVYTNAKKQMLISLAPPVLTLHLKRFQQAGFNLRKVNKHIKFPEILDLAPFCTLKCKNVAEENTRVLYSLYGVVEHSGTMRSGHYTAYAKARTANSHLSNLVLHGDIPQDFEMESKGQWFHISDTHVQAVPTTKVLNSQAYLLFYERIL

PRMT1 (C109) = target: T3, PRMT1 (C109) (Homo sapiens, UniProt Q99873); assay: Blockade of IA-rhodamine labeling of recombinant PRMT1 (gel-based ABPP); assay type: binding
T3 construct: Full length PRMT1 subcloned into pET45b (+) (Novagen) was previously generated by the Cravatt lab; inferred from Ni-NTA purification and the pET45b vector; made in house; host or cells: E. coli BL21(DE3)
T3 sequence (Q99873 11-371 limits assumed): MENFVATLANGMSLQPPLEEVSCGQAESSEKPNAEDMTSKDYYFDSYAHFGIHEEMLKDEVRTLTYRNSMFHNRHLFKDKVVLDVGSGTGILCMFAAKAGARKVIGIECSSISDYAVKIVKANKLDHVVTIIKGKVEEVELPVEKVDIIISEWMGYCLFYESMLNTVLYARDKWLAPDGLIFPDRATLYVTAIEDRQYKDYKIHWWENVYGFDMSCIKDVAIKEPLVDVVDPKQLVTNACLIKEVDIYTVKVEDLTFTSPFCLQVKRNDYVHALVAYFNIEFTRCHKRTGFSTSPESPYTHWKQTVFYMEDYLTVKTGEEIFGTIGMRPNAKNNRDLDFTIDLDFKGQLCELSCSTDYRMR

CYR61 C70 (O00622) = CYR61 C70 (O00622) (Homo sapiens, UniProt O00622); assay: Competitive isoTOP-ABPP, cell lysates; assay type: binding
CYR61 C70 (O00622), sequence (O00622 25-381): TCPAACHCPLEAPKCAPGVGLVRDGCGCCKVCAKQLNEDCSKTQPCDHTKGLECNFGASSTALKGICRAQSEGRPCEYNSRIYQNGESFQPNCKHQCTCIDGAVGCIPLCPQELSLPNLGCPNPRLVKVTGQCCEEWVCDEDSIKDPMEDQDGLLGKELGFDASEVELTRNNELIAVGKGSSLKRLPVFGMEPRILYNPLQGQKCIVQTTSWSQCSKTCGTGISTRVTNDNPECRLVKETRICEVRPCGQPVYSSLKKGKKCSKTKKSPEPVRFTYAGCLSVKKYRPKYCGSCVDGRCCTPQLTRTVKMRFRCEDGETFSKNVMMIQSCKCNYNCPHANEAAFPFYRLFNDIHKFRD

O=C(CCl)N1CCC(C(O)(c2ccccc2)c2ccccc2)CC1 [compound 20]
pIC50 (WT-IDH1 (C269)): 5.54

Cc1ccc(C=C(C#N)C(=O)NCCN2CCOCC2)cc1 [compound 41]
isoTOP-ABPP ratio Q7Z5K2_C160 ([1]; 200 μM, insitu, 231): 1.0

O=C(CCl)NC(=O)NC12CC3CC(CC(C3)C1)C2 [compound 12]
isoTOP-ABPP ratio, cysteine Q9NZB2_C531 [2]: 20.0

COc1ccc(C2CC(c3cccs3)=NN2C(=O)CCl)cc1 (stereo not shown) [compound 4]
isoTOP-ABPP reactivity profile (ratio) 4_100 μM_in-situ_231 (ACO2 C385 (Q99798); fragment 4 at 100 μM): 1.0
isoTOP-ABPP reactivity profile (ratio) 4_100 μM_in-situ_231 (USP16 C205 (Q9Y5T5); fragment 4 at 100 μM): 20.0

O=C(CCl)NC12CC3CC(CC(C3)C1)C2 [compound 21]
isoTOP-ABPP ratio, cysteine Q9NZB2_C531 [2]: 1.6

Cn1cc(S(=O)(=O)N2CCOCC2)cc1C(=O)NC(=O)CCl [compound 11]
isoTOP-ABPP ratio, cysteine Q7Z5K2_C160 ([1]; 100 μM in situ 231): 1.0
pIC50 (PRMT1 (C109); recombinant WT-PRMT1 1 μM in cell lysate, fragment 1 h): 4.44

O=C(CCl)Nc1cc(C(F)(F)F)cc(C(F)(F)F)c1 [compound 3]
blockade of IA-rhodamine labeling of PRMT1 (in words) (PRMT1 (C109); recombinant WT-PRMT1 in cell lysate): inactive
R value (DMSO/fragment) (CYR61 C70 (O00622); 500 μM, in vitro, MDA-MB-231): 20.0

COc1ccc2c(c1)CCCN2C(=O)CCl [compound 2]
pIC50 (WT-IDH1 (C269)): < 4.30
isoTOP-ABPP reactivity profile (ratio) 2_200 μM_in-situ_231 (ACO2 C385 (Q99798); fragment 2 at 200 μM): 20.0
isoTOP-ABPP reactivity profile (ratio) 2_200 μM_in-situ_231 (USP16 C205 (Q9Y5T5); fragment 2 at 200 μM): 7.9

CC(C)CCOCCNC(=O)CCl [compound 27]
isoTOP-ABPP ratio (reactivity profile), O00622_C70 (CYR61 C70 (O00622); 500 μm in-vitro ramos_231): 1.1

O=C(CCl)N1CCN(S(=O)(=O)c2ccccc2F)CC1 [compound 10]
isoTOP-ABPP ratio, cysteine Q7Z5K2_C160 ([1]; 200 μM, insitu, 231): 20.0

O=C(CCl)N1CCN(CC(=O)N2CCOCC2)CC1 [compound 29]
isoTOP-ABPP ratio Q7Z5K2_C160 ([1]; 200 μM, insitu, ramos): 0.7
